Test results as given in patent US20200147058A1, “KRAS INHIBITOR FOR USE IN TREATING CANCER” (Friedrich-Alexander-Universitat Erlangen-Numberg, priority 2016, published 2020).

What was measured:
Mel Juso cells [1] = assay: three-dimensional, anchorage-independent colony-forming assay; assay type: cell-based, human; conditions: Mel Juso (BRAFi primary resistant); DR 5 μM, PLX 10 μM, alone or combined
Description: FIGS. 5A through 5D show time-dependent measurement of colony diameters (exemplary data in top panels) in three-dimensional, anchorage-independent “colony-forming” assays (FIGS. 5A and 5B: Mel Im, FIGS. 5C and 5D: Mel Juso). Exemplary Images (middle) and corresponding quantification of colony diameters (bottom panels, summarized data of n=3 experiments at day 19 after seeding) are also depicted. […] Effects on i) colony formation (FIGS. 5A and 5C, treatment at day 1) and ii) proliferation of pre-formed colonies (FIGS. 5B and 5D, treatment at day 7 and 13) were analyzed. […] Cells were treated for 5 hours with DMSO, 5 μM Deltarasin (DR), 10 μM PLX, or a combination of 10 μM PLX and 5 μM DR. […] (FIG. 5H) Mel Im and Mel Juso were transfected with control si-RNA (si-CTR) or with si-KRAS (si-KR). Two subgroups (blue and red) were additionally treated with 10 μM PLX (Vemurafenib) for 24 hours, with subsequent flow cytometric quantification of tumor cell apoptosis according to FIG. 5G.

[2] = system: normal human epidermal melanocytes (NHEM); assay: toxicity in non-tumor cells (images, LDH); assay type: cell-based; conditions: doses up to 20 μM
Description: (§1) FIGS. 4A through 4H depict that small Molecule KRAS Inhibition Reduces Proliferation and Induces Apoptosis in Melanoma. FIGS. 4A and 4B show proliferation (slope of cell index) of Mel Juso (FIG. 4A) and Mel Im (FIG. 4B) cells treated with DMSO and different concentrations of the KRAS small molecule inhibitor Deltarasin (DR). The cell index as dimensionless parameter for cell proliferative ability was used to determine the half maximal inhibitory concentration (IC50, small graphs) of DR. […] FIG. 4D illustrates exemplary images of different melanoma cell lines (Mel Im, Mel Juso and Mel Ei) treated with 5 μM DR or 5 μM DMSO, respectively, for 24 hours. FIGS. 4E and 4F show images of fibroblast cell lines derived from two different donors (F1, F2) and melanocytes (NHEM) treated DR (20 μM, 48 hours) or DMSO (FIG. 4E), and lactate dehydrogenase (LDH) quantification (FIG. 4F) in cell supernatants (optic density, OD) of NHEM after treatment with low dose DMSO, DR (5 μM), and DR (10 μM), respectively.

Htz19 melanoma cells = assay: three-dimensional colony formation assay; assay type: cell-based, human; conditions: Htz19 (BRAFi primary sensitive); DR 5 μM, PLX 10 μM, alone or combined
HCC cells = assay: anchorage-dependent tumor cell growth; assay type: cell-based, human; conditions: low doses (6 μM)
Mel Juso cells [3] = assay: long-term treatment, emergence of surviving tumor cells and drug resistance; assay type: cell-based, human; conditions: 28 days, IC50 or 2×IC50
[4] = system: murine hepatoma cell line Hepa129; assay: cell cycle FACS analysis (propidium iodide staining); assay type: cell-based; conditions: 5-6 hours of treatment
Description: FIG. 13 depicts Deltarasin Inducing G2/M-Cell Cycle Arrest in Murine HCC Cells.

Hep3B = assay: real-time cell proliferation assay; assay type: cell-based, human; conditions: DR doses
PLC cells = assay: Western blot pERK- and pAKT protein levels; assay type: cell-based, human; conditions: Deltarasin vs DMSO
[5] = system: 451Lu-R and SkMel28-R cells; assay: long-term treatment of PLX-resistant cell lines, surviving tumor cells; assay type: cell-based, human; conditions: 8 μM DR, 28 days
[6] = system: melanoma cell lines (Mel Im, Mel Juso and Mel Ei); assay: toxicity (images) in melanoma cell lines; assay type: cell-based, human; conditions: 5 μM, 24 hours
Description: as §1

[7] = system: murine hepatoma cell line Hepa129; assay: viable cells counted by microscopy; assay type: cell-based; conditions: 24 hours
Procedure: FIGS. 12A through 12C depict Murine Hepatoma Cells (Hepta129) Sensitive for Small Molecule KRAS Inhibition in vitro and in vivo. […] is exemplary images (4-fold) depicting murine Hepatoma Cells (Hepa129) treated for 24 hours with Deltarasin (DR) and/or Sorafenib (SF) using different concentration of inhibitors.

HCC tumor cells = assay: tumor cell toxicity in HCC; assay type: cell-based, human; conditions: higher doses of DR (>8 μM)
HepG2 hepatoma cells = assay: Annexin V / PI staining with FACS analysis of apoptosis; assay type: cell-based, human; conditions: 8 μM
Mel Im cells = assay: three-dimensional, anchorage-independent colony-forming assay; assay type: cell-based, human; conditions: Mel Im (BRAFi primary sensitive); DR 5 μM, PLX 10 μM, alone or combined

c1ccc(Cn2c(-c3ccc(OC[C@H](C4CCNCC4)n4c(-c5ccccc5)nc5ccccc54)cc3)nc3ccccc32)cc1 [Deltarasin, (S)-1-Benzyl-2-(4-(2-(2-phenyl-1H-benzo[d]imidazol-1-yl)-2-(piperidin-4-yl)ethoxy)phenyl)-1H-benzo[d]imidazole]
three-dimensional colony formation and colony proliferation (Mel Juso cells [1]): markedly inhibited
toxic effects in normal human epidermal melanocytes (NHEM) [2]: no toxic effects
three-dimensional colony formation and proliferation of pre-formed colonies (Htz19 melanoma cells): similarly effective as PLX
anchorage-dependent tumor cell growth (HCC cells): suppressed
surviving tumor cells after long-term treatment (Mel Juso cells [3]): no surviving tumor cells were detected
G2/M-Cell Cycle Arrest [4]: dose-dependently induces
SubG1 fractions [4]: increased
inhibition of proliferation (Hep3B): strong dose-dependent inhibition of proliferation
pERK- and pAKT protein levels (PLC cells): significant reduction
emergence of surviving tumor cells (cross-resistance to DR) [5]: completely abolish the emergence of surviving tumor cells
toxicity in different melanoma cell lines [6]: marked toxicity
tumor cell proliferation (viable cells) [7]: marked effects
tumor cell toxicity (HCC tumor cells): marked tumor cell toxicity
induction of apoptosis (FACS) (HepG2 hepatoma cells): marked dose-dependent induction of apoptosis
three-dimensional colony formation and proliferation of pre-formed colonies (Mel Im cells): similarly effective as PLX
